From patent US20080131511A1, “Pharmaceutical Composition for Treatment of Tear and Salivary Fluid Drying” (Astellas Pharma, Inc., priority 2004, published 2008)
Like-named read-outs stand apart in the source and are kept apart here.

Tests used:
[1] = Phase I study, single oral administration: pharmacokinetics in plasma; type: in vivo, human; details: for Tmax / AUC / half-life / Cmax: male
Experimental: (§1) The compound A was orally administered once to healthy male adult volunteers, and saliva secretion action and pharmacokinetics were evaluated.
(§2) Drug administration to the volunteers was carried out by a blind method.
(§3) In order to observe the volunteers carefully, saliva quantity, sweating and pharmacokinetics (concentrations of unchanged compound A in plasma and urine) were periodically measured.

[2] = tested on: healthy male adult volunteers; assay: Phase I study, single oral administration: saliva secretion; type: in vivo, human; details: for Increase of saliva secretion (number of subjects with the symptom): healthy male adult volunteers, 6 subjects
Experimental: as §1, §2, §3

[3] = tested on: ornithine decarboxylase (ODC) activity of parotid salivary gland; assay: Ornithine decarboxylase activity of parotid salivary gland after subcutaneous bolus administration; type: in vivo, mouse (male Balb/c); details: mice
Experimental: Male Balb/c mice were used in the test. […] Also, the growth acceleration action was measured 6 hours after the administration. […] Also, the growth acceleration action was measured 6 hours after the administration. […] Thus, it can be easily analogized that the ODC activity becomes a useful index of cell growth and function of the exocrine gland. Accordingly, the ability of each drug to activate glandular tissue was evaluated by measuring ODC activity of parotid salivary gland and extra-orbital lacrimal gland. The amount of ^14CO2 formed from L-^14C-ornithine was used as the index of ODC activity. A mouse anesthetized with diethyl ether was sacrificed by bleeding, and left and right parotid salivary glands and extra-orbital lacrimal glands were isolated. After removing the attached connective tissue and fat, the isolated glandular tissues homogenized in 1.5 ml of a homogenate buffer (25 mM Tris-HCl buffer (pH 7.4) containing 0.1 mM ethylenediaminetetraacetic acid, 0.4 mM pyridoxal phosphate, 5 mM dithiothreitol and 0.1% Brij 35®) using a Potter type homogenizer and then centrifuged at 4° C., 15,000 g for 30 minutes, and the supernatant was used as the enzyme fraction. […] The ^14CO2 generated by the reaction was captured by 150 μl of 1 N NaOH soaked in a glass filter. Radioactivity of the ^14CO2 captured on the glass filter was detected using a liquid scintillation counter. The enzyme activity (pmol ^14CO2/mg protein/hour) was calculated from the measured results. All of the test results were expressed as fold increases of the reactions of the drug-administered group versus those of the vehicle-administered group, and comparison between the drug-administered groups and the vehicle-administered group was carried out using Dunnett's t-test. P<0.05 was considered significant. Results

[4] = Calculation of plasma concentration under stationary state (Css) and PT ratio from phase I data; parameters: species or system human; details: for concentration in plasma under stationary state (Css): calculated from AUC and T1/2 at 20 mg; for PT ratio (Cmax/Cmin): calculated
Text: As described in the above, in order to increase secretion of salivary and tear fluid and to obtain effect of salivary gland and lacrimal gland cell growth, more sufficiently than usual, it is desirable to control drug release per unit hour of the compound A from a sustained release pharmaceutical preparation, and essentially, it is ideal to keep its effective concentration in human plasma for a predetermined period of time. The effective concentration of compound A in plasma under stationary state can be calculated using the AUC and disappearing half life obtained in the human clinical test, the aforementioned drug release per unit hour, distribution volume, disappearing rate constant and the like pharmacokinetic parameters.
An example of the method for calculating its concentration in plasma under stationary state (Css) is shown in the following.
They were 86.9, 172, 1380 and 2758 ng/ml. Though there is a possibility that it varies depending on the influences of specific difference, individual difference and the like various factors, when an example is cited, effective concentration of the compound A in plasma is 35 ng/ml in a lower case, based on the aforementioned calculation result and from the aforementioned valued calculated from Tables 7 and 8. This is preferably 50 ng/ml, more preferably 87 ng/ml, and further more preferably 170 ng/ml.
In addition, it is desirable to control a PT ratio (Cmax/Cmin) which is the ratio of maximum concentration of the compound A in plasma (Cmax) to its minimum concentration in plasma (Cmin). It is possible to calculate the PT ratio from Tmax and T1/2, and the calculation is carried out in the following manner.
This value means that the hour of T1/2 passed 5.5 times after Tmax, and (½)^5.5=1/45. Thus, the PT ratio becomes 45.
Also, when supposed as twice a day administration, (12−2)/4=2.5. In the same manner as in the above, (½)^2.5=1/5.7. Thus, the PT ratio is 5.7. In addition, when the same calculation is carried out based on the minimum value 3.4 h of T1/2 (showing the effect without perspiration),

[5] = tested on: healthy male adult volunteers; assay: Phase I study, single oral administration: sweating; type: in vivo, human; details: for Sweating (number of subjects with the symptom): healthy male adult volunteers, 6 subjects
Experimental: as §1, §2, §3

[6] = human plasma, single oral 10 mg
[7] = human plasma, single oral 20 mg
[8] = human plasma, single oral 40 mg
[9] = human plasma, single oral 60 mg
[10] = phase I study, oral administration

SMILES: C=C1CC2(CCN(C)CC2)O[C@H]1C [compound A, (−)-(S)-2,8-dimethyl-3-methylene-1-oxa-8-azaspiro[4.5]decane]
- AUC0→∞ ([1]; human plasma, single oral 5 mg): 117.6 ± 41.5 ng/h/mL
- AUC0→∞ [1, 6]: 180.5 ± 77.6 ng/h/mL
- AUC0→∞ [1, 7]: 410.1 ± 106.8 ng/h/mL
- AUC0→∞ [1, 8]: 1,010.1 ± 323.2 ng/hr/ml
- AUC0→∞ [1, 9]: 1,482.3 ± 371.1 ng/hr/ml
- Tmax ([1]; plasma, oral, human test result which used general tablets containing the compound A): ~2 h
- AUC ([1]; plasma, oral, human, 20 mg administration): 410 ng·h/mL
- half-life ([1]; plasma, oral, human, 20 mg administration, read-out: T1/2 (converted)): 3.38 h
- AUC ([1]; plasma, human, 40 mg oral administration): 1010 ng·h/mL
- Cmax ([1]; plasma, human, oral 10 mg): 35.3 ± 10.5 ng/mL
- Cmax ([1]; plasma, human, oral 40 mg): 151 ± 24.1 ng/mL
- Cmax ([1]; human plasma, single oral 5 mg): 19.8 ± 5.2 ng/mL
- Tmax ([1]; human plasma, single oral 5 mg): 1.5 ± 0.55 h
- half-life ([1]; human plasma, single oral 5 mg, read-out: T½ (converted)): 3.89 ± 0.81 h
- Tmax [1, 6]: 1.17 ± 0.41 h
- half-life ([1]; human plasma, single oral 10 mg, read-out: T½ (converted)): 3.42 ± 0.67 h
- Cmax [1, 7]: 68.1 ± 13 ng/mL
- Tmax [1, 7]: 2 ± 0.63 h
- half-life ([1]; human plasma, single oral 20 mg, read-out: T½ (converted)): 3.88 ± 0.67 h
- Tmax [1, 8]: 1.67 ± 0.82 h
- half-life ([1]; human plasma, single oral 40 mg, read-out: T½ (converted)): 3.78 ± 0.59 h
- Cmax [1, 9]: 266 ± 25.2 ng/mL
- Tmax [1, 9]: 1.6 ± 0.55 h
- half-life ([1]; human plasma, single oral 60 mg, read-out: T½ (converted)): 3.2 ± 0.79 h
- Increase of saliva secretion (number of subjects with the symptom) ([2]; single oral 5 mg): 0
- Increase of saliva secretion (number of subjects with the symptom) ([2]; single oral 10 mg): 2
- Increase of saliva secretion (number of subjects with the symptom) ([2]; single oral 20 mg): 2
- Increase of saliva secretion (number of subjects with the symptom) ([2]; single oral 60 mg): 5
- minimum dose by which increase of the salivary fluid secretion was observed [2, 10]: 10 mg
- Glandular cell growth Salivary gland ([3]; s.c. bolus 10 mg/kg, ODC activity 6 hours after administration): 0.71 ± 0.05 fold increase vs. the vehicle group
- Glandular cell growth Salivary gland ([3]; s.c. bolus 30 mg/kg, ODC activity 6 hours after administration): 0.72 ± 0.11 fold increase vs. the vehicle group
- Glandular cell growth Salivary gland ([3]; s.c. bolus 100 mg/kg, ODC activity 6 hours after administration): 2.8 ± 0.72 fold increase vs. the vehicle group
- concentration in plasma under stationary state (Css) ([4]; release rate R=4.2 mg/h): 86.9 ng/mL
- concentration in plasma under stationary state (Css) ([4]; release rate R=8.3 mg/h): 172 ng/mL
- concentration in plasma under stationary state (Css) ([4]; release rate R=66.7 mg/h): 1380 ng/mL
- concentration in plasma under stationary state (Css) ([4]; release rate R=133.3 mg/h): 2758 ng/mL
- PT ratio (Cmax/Cmin) ([4]; once a day administration, T1/2 3.4 h): 90.5
- PT ratio (Cmax/Cmin) ([4]; once a day administration, Tmax 2, T1/2 4): 45
- PT ratio (Cmax/Cmin) ([4]; twice a day administration, T1/2 3.4 h): 7.5
- PT ratio (Cmax/Cmin) ([4]; twice a day administration, Tmax 2, T1/2 4): 5.7
- Sweating (number of subjects with the symptom) ([5]; single oral 5 mg): 0
- Sweating (number of subjects with the symptom) ([5]; single oral 10 mg): 1
- Sweating (number of subjects with the symptom) ([5]; single oral 20 mg): 0
- Sweating (number of subjects with the symptom) ([5]; single oral 40 mg): 0
- Sweating (number of subjects with the symptom) ([5]; single oral 60 mg): 5
- dose at which a side effect was found ([5]; human clinical test): 60 mg/individual
- dose at which a side effect was not found ([5]; human clinical test): 40 mg/individual
- maximum dose (single administration) by which sweating was not observed but the beneficial effect was observed [5, 10]: 40 mg

SMILES: CC[C@@H]1C(=O)OC[C@@H]1Cc1cncn1C [pilocarpine]
- Glandular cell growth Salivary gland ([3]; s.c. bolus 1 mg/kg, ODC activity 6 hours after administration): 1.4 ± 0.48 fold increase vs. the vehicle group
- Glandular cell growth Salivary gland ([3]; s.c. bolus 3 mg/kg, ODC activity 6 hours after administration): 1.3 ± 0.54 fold increase vs. the vehicle group
- Glandular cell growth Salivary gland ([3]; s.c. bolus 10 mg/kg, ODC activity 6 hours after administration (Table 3)): 3.2 ± 1.1 fold increase vs. the vehicle group

SMILES: CC1OC2(CS1)CN1CCC2CC1 (stereo not drawn) [cevimeline]
- Glandular cell growth Salivary gland ([3]; s.c. bolus 10 mg/kg, ODC activity 6 hours after administration (Table 4)): 1.7 ± 065 fold increase vs. the vehicle group
- Glandular cell growth Salivary gland ([3]; s.c. bolus 30 mg/kg, ODC activity 6 hours after administration (Table 4)): 1.1 ± 0.33 fold increase vs. the vehicle group
- Glandular cell growth Salivary gland ([3]; s.c. bolus 100 mg/kg, ODC activity 6 hours after administration (Table 4)): 1.1 ± 0.33 fold increase vs. the vehicle group
